# Data taken from PubChem BioAssay (NCI).
#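 48-hour exposure; five concentrations; linearly interpolated endpoints. Abbreviation: GI50, concentration required for 50% inhibition of growth. Definition used: TGI = concentration required for complete inhibition of growth.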
# What was measured:
# Assay in all cases: DTP human tumour cell line panel, 48 h
# NCI-H226 lung = test system: NCI-H226 lung
# 786-0 renal = test system: 786-0 renal
# OVCAR-3 ovarian = test system: OVCAR-3 ovarian
# SNB-19 CNS = test system: SNB-19 CNS
# UACC-257 melanoma = test system: UACC-257 melanoma
# MCF7 breast = test system: MCF7 breast
# RPMI-8226 leukemia = test system: RPMI-8226 leukemia
# BT-549 breast = test system: BT-549 breast
# DU-145 prostate = test system: DU-145 prostate
# OVCAR-8 ovarian = test system: OVCAR-8 ovarian
# HOP-92 NSCLC = test system: HOP-92 NSCLC
Compound,TGI (NCI-H226 lung),TGI (786-0 renal),TGI (OVCAR-3 ovarian),TGI (SNB-19 CNS),TGI (UACC-257 melanoma),TGI (MCF7 breast),TGI (RPMI-8226 leukemia),TGI (BT-549 breast),TGI (DU-145 prostate),TGI (OVCAR-8 ovarian),TGI (HOP-92 NSCLC),GI50 (NCI-H226 lung),GI50 (OVCAR-3 ovarian),GI50 (HOP-92 NSCLC),GI50 (SNB-19 CNS),GI50 (UACC-257 melanoma),GI50 (MCF7 breast),GI50 (RPMI-8226 leukemia),GI50 (DU-145 prostate),GI50 (OVCAR-8 ovarian)
CC(C)OC(=O)[C@@H](O)[C@H](CO)C1=CC([Si](C)(C)c2ccccc2)=CON1,> 100 µM,> 100 µM,> 100 µM,> 100 µM,> 100 µM,> 100 µM,> 100 µM,> 100 µM,> 100 µM,> 100 µM,,,,,,,,,,
COc1ccc(/C=N/NC(=O)c2cnc3[nH]c(=O)n(C)c(=O)c3c2)cc1,> 100 µM,> 100 µM,> 100 µM,98.8 µM,> 100 µM,> 100 µM,> 100 µM,> 100 µM,> 100 µM,> 100 µM,,,,,,,,,,
Cc1nnc(-n2c(O)cc(=O)n(-c3ccccc3)c2=S)nc1/C=C/c1ccc(N(C)C)cc1,> 100 µM,> 59.4 µM,,> 63 µM,> 55.8 µM,> 40.9 µM,> 100 µM,> 70.7 µM,> 90.1 µM,> 80.2 µM,> 71.9 µM,,,,,,,,,
CC[C@@]12C=CC(=S)N(CCSc3ccccc3)[C@@H]1c1c(n(S(=O)(=O)c3ccc(OC)cc3)c3ccccc13)CC2,,> 100 µM,> 100 µM,> 100 µM,> 100 µM,> 100 µM,,> 100 µM,> 100 µM,> 100 µM,> 100 µM,,,,,,,,,
NC(=O)CC(N=C1C(=O)OC(C(O)CO)C1=NC(CC(N)=O)C(=O)O)C(=O)O (configuration not stated),> 100 µM,> 100 µM,,> 100 µM,> 100 µM,> 100 µM,> 100 µM,,> 100 µM,> 100 µM,> 100 µM,,,,,,,,,
O=[N+]([O-])c1c2nc3n(c2cc2c1nc1n2CCC1)CCC3,> 100 µM,> 100 µM,> 100 µM,> 100 µM,> 100 µM,> 100 µM,> 100 µM,,> 100 µM,> 100 µM,> 100 µM,,,,,,,,,
CCCCCCC(C)OC(=O)/C=C(\CC(=O)OC(C)CCCCCC)C(=O)OC(C)CCCCCC (configuration not stated),> 100 µM,> 100 µM,> 100 µM,,> 100 µM,,> 100 µM,,,> 100 µM,> 100 µM,,,,,,,,,
c1ccc(C2=NCCc3cc4c(cc32)OCO4)cc1,,> 100 µM,> 100 µM,> 100 µM,> 100 µM,> 100 µM,,,> 100 µM,> 100 µM,,,,,,,,,,
CCN(CC)CCCC(C)NC(=O)c1ccc2c(c1)C(=O)c1ccccc1C2=O (configuration not stated),49 µM,39.5 µM,32.2 µM,55.3 µM,26.1 µM,,52.4 µM,,,66 µM,63.7 µM,,,,,,,,,
C=C1C(=O)O[C@@H]2[C@H](O)[C@@H](C)[C@@H]3C=CC(=O)[C@@]3(C)[C@H](OC(=O)C=C(C)C)[C@H]12,4.17 µM,,2.15 µM,17.2 µM,4.74 µM,1.81 µM,0.975 µM,,,8.53 µM,2.21 µM,,,,,,,,,
COc1ccccc1NC(=O)O/N=C(/Cl)C(C)C,41.5 µM,24.9 µM,16.3 µM,> 56.4 µM,26.8 µM,,4.71 µM,21.6 µM,33.2 µM,28.6 µM,,,,,,,,,,
Cc1cc2nc(N3C(=O)/C(=C/c4ccc(Cl)cc4)N=C3c3ccccc3)sc2cc1C,,92.1 µM,50 µM,> 100 µM,> 100 µM,> 100 µM,> 100 µM,81.7 µM,> 100 µM,> 100 µM,56.5 µM,,,,,,,,,
COc1ccc(-c2cc(-c3cc(F)c(Cl)cc3Cl)on2)cc1OC,80.6 µM,> 100 µM,> 100 µM,> 100 µM,> 100 µM,,> 100 µM,> 100 µM,> 100 µM,> 100 µM,> 100 µM,,,,,,,,,
Oc1ccc(C#CCOc2ccccc2)cc1CNCCN(Cc1ccccn1)Cc1ccccn1,3.1 µM,,3.04 µM,7.67 µM,6.83 µM,4.43 µM,6.2 µM,,2.95 µM,6.55 µM,4.1 µM,1.34 µM,1.47 µM,1.57 µM,0.797 µM,2.55 µM,1.07 µM,1.53 µM,1.08 µM,1 µM
CCN(CC)C(=O)N1CN(c2ccccc2)C2(CCN(CCCSc3ccc(F)cc3)CC2)C1=O,44.4 µM,25.4 µM,18.6 µM,> 100 µM,12.8 µM,> 100 µM,41.6 µM,31.4 µM,40.7 µM,54.4 µM,,,,,,,,,,
N#Cc1nc(CCC(c2nc(C#N)c(N)o2)N2C(=O)c3ccccc3C2=O)oc1N (configuration not stated),> 100 µM,> 100 µM,> 100 µM,> 100 µM,> 100 µM,> 100 µM,> 100 µM,,> 100 µM,,> 100 µM,,,,,,,,,
O=C1CCCC2=C1CC1=C(CCCC1=O)N2c1ccccc1,> 100 µM,> 100 µM,> 100 µM,> 100 µM,,> 100 µM,> 100 µM,> 100 µM,,> 100 µM,> 100 µM,,,,,,,,,
Oc1cccc(-c2cn3cc(C(F)(F)F)ccc3n2)c1,> 100 µM,> 100 µM,86.7 µM,> 100 µM,65.3 µM,> 100 µM,,> 100 µM,72.5 µM,> 100 µM,> 100 µM,,,,,,,,,
CC(C)C1CC[C@H](C)C[C@@H]1OC(=O)C(C(=O)O[C@H]1C[C@@H](C)CCC1C(C)C)C(O)[C@@H]1OC(C)(C)O[C@H]1C1COC(C)(C)O1 (some centres not stated),41.2 µM,31.7 µM,36.2 µM,29.8 µM,78.2 µM,22.6 µM,44.6 µM,34.2 µM,44.5 µM,47.2 µM,,,,,,,,,,
CC(=O)OCC1OC(O/C=C(\CN=[N+]=[N-])C(C)=O)C(OC(C)=O)C(OC(C)=O)C1OC(C)=O (configuration not stated),,18.2 µM,28.7 µM,83.8 µM,17.1 µM,28 µM,5.18 µM,31.2 µM,,> 100 µM,56.6 µM,,,,,,,,,
